From patent US4895844A, “Indole alkaloid compositions and their methods of use” (Harbor Branch Oceanographic Institution, Inc., priority 1989, dated 1990)
In brackets after ≈: the same amount, converted by molar mass.

What was measured:
Type in all cases: cell-based
[1] = test system: HCT-8 human colon tumor cells; assay: Human tumor cell line assay, HCT-8 (colon); conditions: 120 hours, read-out: Activity at prescribed doses
Protocol: (§1) HUMAN TUMOR CELL LINE ASSAY
(§2) Maintenance of Cell Line HCT-8 human colon tumor cells are grown in RPMl 1640 medium (GIBCO). A-549 human lung carcinoma cells and MD-AMB-231 human breast cancer cells are cultured in Dulbecco medium (Biologos, Inc.). All media are supplemented with 10% fetal bovine serum and contain 50 ug/ml gentamycin. All human tumor cell lines are incubated at 5% CO2 at 37° and subcultured once a week. The seeding levels are 350,000 MCF-7 cells, 60,000 HCT-8 cells and 300,000 A-549 cells per T-25 Flask. Vinblastine is used as a positive control.
(§3) 2. Incubate in a CO2 -incubator for 48 hours.
(§4) 3. Add composition to each well and incubate for an additional 120 hours.
(§5) 4. Discard medium and stain with methylene blue (HCT-8) or crystal violet (A-549 and MD-AMB-231).
(§6) 5. Compare cell density of drug-treated well with that of the control (no drug added) as follows: ND (not detectable), >90%; 1+, 75-90%; 2+, 50-74%; 3+, 25-49%, 4+, >25% of control growth.

[2] = test system: A-549 human lung carcinoma cells; assay: Human tumor cell line assay, A-549 (lung); conditions: 120 hours, read-out: Activity at prescribed doses
Protocol: as §1, §2, §3, §4, §5, §6

[3] = test system: MD-AMB-231 human breast cancer cells; assay: Human tumor cell line assay, MD-AMB-231 (mammary); conditions: 120 hours, read-out: Activity at prescribed doses
Protocol: as §1, §2, §3, §4, §5, §6

[4] = test system: P388 mouse leukemia cells; assay: P388 mouse leukemia cell assay; conditions: 48 hours
Protocol: P388 MOUSE LEUKEMIA CELL ASSAY
P388 mouse leukemia cells are grown in Dulbecco MEM medium with 10% horse serum, 4 mM glutamine, and 20 ug/ml gentamycin (Biologos, Inc.). Cells are incubated in 10% CO2 and subcultured 2 times per week.
1. Add composition to each well of a 24-well plate or tube and allow solvent to evaporate to dryness.
2. Add 2 ml (1.2×10^5) cells to each well or tube and mix.
3. Incubate in 10% CO2 at 37° for 48 hours.
4. Read plates with an inverted microscope, scoring activity from 1+ to 4+ as follows: ND (not detectable), >90%; 1+, 75-90%; 2+, 50-74%; 3+, 25-49%; 4+, <25% of control growth. Alternatively, the activity may be designated as IC50 concentration which is the concentration of composition required to inhibit 50% of cell growth on the plate.
Cell counts are performed on each tube and results are reported as percent of control.

CN1CC(c2c[nH]c3c(Br)c(Br)cc(O)c23)NCC1c1c[nH]c2cc(Br)ccc12 (stereo not shown) [Biemnidin (1), biemnidin]
activity at 1 µg/mL ([1]; HCT-8, 1 μg/ml): > 90% | activity at 10 µg/mL ([1]; HCT-8, 10 μg/ml): > 25% | activity at 50 µg/mL ([1]; HCT-8, 50 μg/ml): > 25% | activity at 1 µg/mL ([2]; A549, A-549, 1 μg/ml): > 90% | activity at 10 µg/mL ([2]; A549, A-549, 10 μg/ml): > 25% | activity at 50 µg/mL ([2]; A549, A-549, 50 μg/ml): > 25% | activity at 1 µg/mL ([3]; MDA-MB-231, MD-AMB-231, 1 μg/ml): > 90% | activity at 10 µg/mL ([3]; MDA-MB-231, MD-AMB-231, 10 μg/ml): > 25% | activity at 50 µg/mL ([3]; MDA-MB-231, MD-AMB-231, 50 μg/ml): > 25% | IC50 [4]: 15 µg/mL (≈ 25.7 µM)
